Consider three compounds from patent US20200008426A1, “ACTIVE COMPOUND COMBINATIONS” (BAYER AKTIENGESELLSCHAFT, priority 2017, published 2020).

Structures are written as SMILES. Read-outs that look alike come from different tables or passages of the source.

One data set deals with Puccinia triticina. In words: In vivo preventive Puccinia triticina test (wheat). The following applies: Puccinia triticina, 192 h, 8 days after inoculation, read-out: Efficacy in % found; for pest or weed control at 7.5 ppm: 7.5 ppm a.i.; for pest or weed control at 15 ppm: 15 ppm a.i.; for pest or weed control at 30 ppm: 30 ppm a.i.; for pest or weed control at 250 ppm: 250 ppm a.i. The method, then:
After the spray coating has been dried, the plants are sprayed with a spore suspension of Puccinia triticina.
The test is evaluated 8 days after the inoculation.

The next data set has as its system Pyrenophora teres. In words: In vitro-Test with Pyrenophora teres. The format is cell-based.
The test system of the next data set is Pyricularia oryzae. The format is cell-based.
The next data set relates to Ustilago avenae. Nature of the data set: In vitro-Test with Ustilago avenae. The format is cell-based. The following applies: compound alone.
The nature of data set [1]: In vivo ecotoxicity screening test on fish (Danio rerio). The following applies: Danio rerio, in vivo, other: exposure of embryos to the aqueous preparation. The gist of the method:
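Zebrafish mortality recorded after 96 h across five increasing concentrations between 0.01 and 1000 ppm a.i., with at most 0.5% DMSO. Mixtures tested at A:B weight ratios of 5:1 to 1:5; measured ECx compared with predicted value as the Model Deviation Ratio.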

The next data set has as its system Sphaerotheca fuliginea. Nature of the data set: In vivo preventive test on Sphaerotheca (cucumbers). The conditions noted are these: 7 days after inoculation.
For the next data set, the system named is Venturia inaequalis. In words: In vivo preventive test on Venturia (apples). The following applies: Table E2, 10 days after inoculation. The method, then: The test is evaluated 10 days after the inoculation.
The test system of data set [2] is Blumeria graminis f.sp. hordei. Nature of the data set: In vivo preventive Blumeria test (barley). The following applies: Table F2, 7 days after inoculation.
A further data set has as its system Septoria tritici. Nature of the data set: In vivo preventive Septoria tritici test (wheat). The conditions noted are these: Zymoseptoria tritici, 504 h, 21 days after inoculation, read-out: Efficacy in % found; for pest or weed control at 125 ppm: 125 ppm a.i.; for pest or weed control at 250 ppm: 250 ppm a.i. As for the experimental part: After the spray coating has been dried, the plants are sprayed with a spore suspension of Septoria tritici.
The test is evaluated 21 days after the inoculation.

In another data set the test system is Leptosphaeria nodorum. Nature of the data set: In vitro-Test with Leptosphaeria nodorum. The format is cell-based. The following applies: 0.04 ppm.
The test system of the next data set is Phakopsora pachyrhizi. Nature of the data set: In vivo preventive test on Phakopsora (soybeans). The following applies: Table C3, 7 days after inoculation.
The subject of the next data set is Botrytis cinerea. In words: In vitro-Test with Botrytis cinerea. It is filed as cell-based.
Another data set deals with Fusarium culmorum. In words: In vitro-Test with Fusarium culmorum. The format is cell-based.
The next data set relates to Rhizoctonia solani. Nature of the data set: In vitro-Test with Rhizoctonia solani. The following applies: compound alone. The format is cell-based.

What is called LC50 is the concentration that kills 50% of the test population. Regarding `CC(C)c1ccc(Cl)cc1CN(C(=O)c1c(C(F)F)nn(C)c1F)C1CC1` [Example 2.038, N-(5-chloro-2-isopropylbenzyl)-N-cyclopropyl-3-(difluoromethyl)-5-fluoro-1-methyl-1H-pyrazole-4-carboxamide], the pest or weed control at 7.5 ppm in the data set with Puccinia triticina is 22%; in the data set on Puccinia triticina (Table H1), 33%. Also, the pest or weed control at 15 ppm in the data set with Puccinia triticina and in the data set on Puccinia triticina (Table H1) was 33% in each case. In addition, the figures for the pest or weed control at 30 ppm in the data set on Puccinia triticina and in the data set with Puccinia triticina (Table H1) were 44% and 33%, respectively. In addition, the Efficacy % was 57% with Pyrenophora teres (0.8 ppm); 82% with Pyrenophora teres (4 ppm); 55% with Pyrenophora teres (20 ppm); 0% in the data set with Pyricularia oryzae (0.8 ppm); 51% with Pyricularia oryzae (4 ppm); 75% in the data set on Pyricularia oryzae (20 ppm). Moreover, the Efficacy % in the data set with Ustilago avenae (0.8 ppm) was 43%; with Ustilago avenae (4 ppm), 49%; in the data set on Ustilago avenae (20 ppm) it was 52%. Moreover, in data set [1], the LC50 at 96 h is 1.74 µg/mL. The “Efficacy in % found” value with Sphaerotheca fuliginea (Table D3, 1 ppm a.i.) turned out to be 40%; in the data set on Sphaerotheca fuliginea (Table D3, 2 ppm a.i.), 93%; in the data set on Sphaerotheca fuliginea (Table D3, 4 ppm a.i.), 98%.

Regarding `N#Cc1c(Cl)c(Cl)c(Cl)c(C#N)c1Cl` [Example 5.004, chlorothalonil], the “Efficacy in % found” value stood at 24% in the data set with Venturia inaequalis (12.5 ppm a.i.); 14% in the data set on Venturia inaequalis (25 ppm a.i.); 93% with Venturia inaequalis (50 ppm a.i.); 22% in data set [2] (62.5 ppm a.i.); 44% in [2] (125 ppm a.i.); 44% in data set [2] (250 ppm a.i.). In addition, the “Efficacy in % found” value in the data set on Phakopsora pachyrhizi (25 ppm a.i.) was found to be 8%; in the data set on Phakopsora pachyrhizi (50 ppm a.i.), 0%. Moreover, the pest or weed control at 62.5 ppm in the data set on Puccinia triticina (62.5 ppm a.i.) and in the data set with Septoria tritici (62.5 ppm a.i.) was 0% each time. In addition, the pest or weed control at 250 ppm with Puccinia triticina was determined as 40%; in the data set on Septoria tritici it was 14%. For the same compound, in the data set on Septoria tritici, the pest or weed control at 125 ppm was 0%. The compound also gave an Efficacy % in the data set on Leptosphaeria nodorum of 0%.

In the case of `CC1(C)N=C(c2cnc3ccccc3c2)c2ccccc2C1(F)F` [Example 15.047, 3-(4,4-difluoro-3,3-dimethyl-3,4-dihydroisoquinolin-1-yl)quinoline], the pest or weed control at 125 ppm with Puccinia triticina (125 ppm a.i.) is 11%; in the data set on Septoria tritici it was 0%. Also, the pest or weed control at 250 ppm in the data set with Puccinia triticina came to 11%; in the data set on Septoria tritici it was 0%. Further, the pest or weed control at 500 ppm was determined as 22% in the data set on Puccinia triticina (500 ppm a.i.) and 0% in the data set with Septoria tritici (500 ppm a.i.). For the same compound, the Efficacy % was determined as 0% in the data set on Botrytis cinerea (1 ppm); 0% with Botrytis cinerea (5 ppm); 83% in the data set with Fusarium culmorum (0.04 ppm); 100% in the data set on Fusarium culmorum (0.2 ppm); 28% in the data set with Pyrenophora teres (0.04 ppm); 76% in the data set on Pyrenophora teres (0.2 ppm). Besides, the Efficacy % in the data set on Pyrenophora teres (1 ppm) is recorded as 64%; in the data set with Rhizoctonia solani (1 ppm) it was 0%; in the data set on Rhizoctonia solani (5 ppm), 0%. Besides, in data set [1], the LC50 at 96 h was 7.82 µg/mL. Further, the “Efficacy in % found” value in the data set with Sphaerotheca fuliginea (Table D2, 2.5 ppm a.i.) is recorded as 0%; with Sphaerotheca fuliginea (Table D2, 5 ppm a.i.) it was 0%; with Sphaerotheca fuliginea (Table D2, 10 ppm a.i.), 8%.
